Laboratory results reported in PubChem BioAssay AID248 (DTP/NCI, 2004).
“And” between values parts separate entries of the source, which are not always exact repeats. Equal entries are not always repeated. Toxic doses and inconclusive results are not listed. Rule as the data show it: active = T/C of 150% or more; inactive = T/C below 125%.

System: L1210 leukemia ip in BDF1 mice, survival T/C
Test: NCI In Vivo Anticancer Drug Screen. Data for tumor model L1210 Leukemia (intraperitoneal) in B6D2F1 (BDF1) mice
Details: endpoint: mean survival time, higher = longer survival
In short: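 Read-out is survival time, reported as the treated-group measurement over the vehicle-control measurement.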

[1] = dose: 25.0 mg/kg/injection, schedule: Q01DX009 (ip), vehicle: Klucel (hydroxypropylcellulose) (HPC)
[2] = dose: 50.0 mg/kg/injection, schedule: Q01DX009 (ip), vehicle: Klucel (hydroxypropylcellulose) (HPC)
[3] = dose: 100.0 mg/kg/injection, schedule: Q01DX009 (ip), vehicle: Klucel (hydroxypropylcellulose) (HPC)
[4] = dose: 100.0 mg/kg/injection, schedule: Q04DX003 (ip), vehicle: Klucel (hydroxypropylcellulose) (HPC)
[5] = dose: 200.0 mg/kg/injection, schedule: Q04DX003 (ip), vehicle: Klucel (hydroxypropylcellulose) (HPC)
[6] = dose: 100.0 mg/kg/injection, schedule: Q01DX001 (ip), vehicle: carboxymethylcellulose (CMC)
[7] = dose: 200.0 mg/kg/injection, schedule: Q01DX001 (ip), vehicle: carboxymethylcellulose (CMC)
[8] = dose: 400.0 mg/kg/injection, schedule: Q01DX001 (ip), vehicle: carboxymethylcellulose (CMC)
[9] = dose: 200.0 mg/kg/injection, schedule: Q01DX009 (ip), vehicle: Klucel (hydroxypropylcellulose) (HPC)
[10] = dose: 100.0 mg/kg/injection, schedule: Q04DX003 (ip), vehicle: saline
[11] = dose: 200.0 mg/kg/injection, schedule: Q04DX003 (ip), vehicle: saline
[12] = dose: 400.0 mg/kg/injection, schedule: Q04DX003 (ip), vehicle: saline
[13] = dose: 100.0 mg/kg/injection, schedule: Q04DX002 (ip), vehicle: saline with Tween-80
[14] = dose: 200.0 mg/kg/injection, schedule: Q04DX002 (ip), vehicle: saline with Tween-80
[15] = dose: 400.0 mg/kg/injection, schedule: Q04DX002 (ip), vehicle: saline with Tween-80
[16] = dose: 50.0 mg/kg/injection, schedule: Q01DX009 (ip), vehicle: saline
[17] = dose: 100.0 mg/kg/injection, schedule: Q01DX009 (ip), vehicle: saline

Measured: T/C

CCN(CC)/N=N/c1nc[nH]c1C(N)=O
inactive: dose: 12.5 mg/kg/injection, schedule: Q01DX009 (ip), vehicle: water 100 % of control | [1] 117 % of control | dose: 25.0 mg/kg/injection, schedule: Q01DX009 (ip), vehicle: water 101 % of control | dose: 50.0 mg/kg/injection, schedule: Q01DX001 (ip), vehicle: water 102 % of control | [2] 111 % of control | dose: 50.0 mg/kg/injection, schedule: Q01DX009 (ip), vehicle: water 98 % of control and 104 % of control | dose: 50.0 mg/kg/injection, schedule: Q04DX003 (ip), vehicle: water 101 % of control | dose: 100.0 mg/kg/injection, schedule: Q01DX001 (ip), vehicle: Klucel (hydroxypropylcellulose) (HPC) 104 % of control | dose: 100.0 mg/kg/injection, schedule: Q01DX001 (ip), vehicle: water 103 % of control | [3] 114 % of control | dose: 100.0 mg/kg/injection, schedule: Q01DX009 (ip), vehicle: water 105 % of control and 86 % of control | [4] 102 % of control | dose: 100.0 mg/kg/injection, schedule: Q04DX003 (ip), vehicle: water 102 % of control | dose: 200.0 mg/kg/injection, schedule: Q01DX001 (ip), vehicle: Klucel (hydroxypropylcellulose) (HPC) 101 % of control | dose: 200.0 mg/kg/injection, schedule: Q01DX001 (ip), vehicle: water 100 % of control | [5] 108 % of control | dose: 200.0 mg/kg/injection, schedule: Q04DX003 (ip), vehicle: water 110 % of control | dose: 400.0 mg/kg/injection, schedule: Q01DX001 (ip), vehicle: Klucel (hydroxypropylcellulose) (HPC) 113 % of control | dose: 400.0 mg/kg/injection, schedule: Q01DX001 (ip), vehicle: water 113 % of control | dose: 400.0 mg/kg/injection, schedule: Q04DX003 (ip), vehicle: Klucel (hydroxypropylcellulose) (HPC) 119 % of control | dose: 400.0 mg/kg/injection, schedule: Q04DX003 (ip), vehicle: water 111 % of control

O=[N+]([O-])c1cc(N(c2ccccc2)c2ccccc2)cc([N+](=O)[O-])c1
inactive: [6] 103 % of control | [7] 108 % of control | [8] 103 % of control

CCOC(=O)CC(CC(=O)OCC)NC(=O)c1ccc(N(C)C(=O)OCc2ccccc2)cc1
inactive: [6] 97 % of control | [7] 100 % of control | [8] 105 % of control

Nc1nc(-c2ccccc2N=NN2CCCCC2)nc2ccccc12
inactive: [2] 107 % of control | [3] 118 % of control | [4] 109 % of control | [9] 107 % of control | [5] 104 % of control

CCCCCCCCCCCCOc1ccc(C(=O)O)cc1
inactive: dose: 50.0 mg/kg/injection, schedule: Q01DX001 (ip), vehicle: other 100 % of control | dose: 100.0 mg/kg/injection, schedule: Q01DX001 (ip), vehicle: other 100 % of control | dose: 200.0 mg/kg/injection, schedule: Q01DX001 (ip), vehicle: other 93 % of control | dose: 400.0 mg/kg/injection, schedule: Q01DX001 (ip), vehicle: other 93 % of control

CCCOC(=O)c1ccc(NCC(C)(C)N(C)C)cc1
inactive: [10] 100 % of control | [11] 97 % of control | [12] 97 % of control

C=C(NC(=O)C(NC(=O)C(CCCCN)NC(=O)C1CSC(C)C2NC(=O)C(CC(C)C)NC(=O)C(NC(=O)C(CCC(N)=O)NC(=O)C(CC(C)C)NC(=O)C(Cc3ccccc3)NC(=O)C3CSC(C)C(NC(=O)C(NC(=O)C4CSC(C)C(NC(=O)C5CSCC(NC(=O)C(CCCCN)NC(=O)C(N)Cc6c[nH]c7ccccc67)C(=O)NC(CCC(=O)O)C(=O)NC(=C)C(=O)NC(CC(C)C)C(=O)N5)C(=O)N5CCCC5C(=O)NCC(=O)N4)C(C)C)C(=O)NCC(=O)NC(C)C(=O)NC(CC(C)C)C(=O)NC(CCC(N)=O)C(=O)N/C(=C/C)C(=O)N3)C(C)SCC(NC2=O)C(=O)NC(CC(N)=O)C(=O)N1)C(C)CC)C(=O)NC(CCCCN)C(=O)O (stereo not given)
inactive: [13] 108 % of control | [14] 94 % of control | [15] 92 % of control

C#CCCCCC#CCCCCCl
inactive: dose: 25.0 mg/kg/injection, schedule: Q01DX009 (ip), vehicle: acetone 104 % of control | dose: 50.0 mg/kg/injection, schedule: Q01DX009 (ip), vehicle: acetone 95 % of control | dose: 100.0 mg/kg/injection, schedule: Q01DX009 (ip), vehicle: acetone 87 % of control | dose: 100.0 mg/kg/injection, schedule: Q04DX003 (ip), vehicle: acetone 90 % of control | dose: 200.0 mg/kg/injection, schedule: Q04DX003 (ip), vehicle: acetone 93 % of control

CC(C)N(CCO)CCO
inactive: [10] 100 % of control | [11] 102 % of control | [12] 100 % of control

CC(C)CC(=O)c1ccccc1
inactive: dose: 50.0 mg/kg/injection, schedule: Q04DX002 (ip), vehicle: saline 104 % of control | dose: 100.0 mg/kg/injection, schedule: Q04DX002 (ip), vehicle: saline 97 % of control | dose: 200.0 mg/kg/injection, schedule: Q04DX002 (ip), vehicle: saline 111 % of control

COc1ccccc1CN1CCCN(Cc2ccccc2OC)C1c1ccc(C2N(Cc3ccccc3OC)CCCN2Cc2ccccc2OC)cc1
inactive: dose: 100.0 mg/kg/injection, schedule: Q01DX001 (ip), vehicle: acetone 102 % of control | dose: 200.0 mg/kg/injection, schedule: Q01DX001 (ip), vehicle: acetone 96 % of control | dose: 400.0 mg/kg/injection, schedule: Q01DX001 (ip), vehicle: acetone 96 % of control

CCOc1c(Br)cc(Br)cc1C=C(C#N)C#N
inactive: dose: 25.0 mg/kg/injection, schedule: Q01DX009 (ip), vehicle: other 102 % of control | dose: 50.0 mg/kg/injection, schedule: Q01DX009 (ip), vehicle: other 98 % of control | dose: 100.0 mg/kg/injection, schedule: Q04DX003 (ip), vehicle: other 102 % of control | dose: 200.0 mg/kg/injection, schedule: Q04DX003 (ip), vehicle: other 108 % of control

O=C1c2ccccc2C(=O)N1c1ccccc1
inactive: [3] 98 % of control | dose: 100.0 mg/kg/injection, schedule: Q04DX002 (ip), vehicle: Klucel (hydroxypropylcellulose) (HPC) 91 % of control | [9] 98 % of control | dose: 200.0 mg/kg/injection, schedule: Q04DX002 (ip), vehicle: Klucel (hydroxypropylcellulose) (HPC) 94 % of control | dose: 400.0 mg/kg/injection, schedule: Q01DX009 (ip), vehicle: Klucel (hydroxypropylcellulose) (HPC) 95 % of control | dose: 400.0 mg/kg/injection, schedule: Q04DX002 (ip), vehicle: Klucel (hydroxypropylcellulose) (HPC) 88 % of control

Nc1nc(N)c2c(n1)CCP(c1ccccc1)C2 (stereo not given)
inactive: dose: 12.5 mg/kg/injection, schedule: Q04DX003 (ip), vehicle: saline with Tween-80 98 % of control | dose: 25.0 mg/kg/injection, schedule: Q04DX003 (ip), vehicle: saline with Tween-80 96 % of control | dose: 50.0 mg/kg/injection, schedule: Q04DX003 (ip), vehicle: saline with Tween-80 95 % of control

O=C(CCl)NCc1cnccn1
inactive: [16] 95 % of control | [17] 107 % of control | [10] 98 % of control | [11] 104 % of control

CCC(Cl)COP(=O)(OCC(Cl)CC)O/C(C)=C(/C)P(=O)(OCC(Cl)CC)OCC(Cl)CC (stereo not given)
inactive: [13] 104 % of control | [14] 96 % of control | [15] 100 % of control

CCNC(Cc1ccccc1)C1CCCO1 (stereo not given)
inactive: dose: 6.25 mg/kg/injection, schedule: Q01DX009 (ip), vehicle: saline 108 % of control | dose: 12.5 mg/kg/injection, schedule: Q01DX009 (ip), vehicle: saline 94 % of control | dose: 25.0 mg/kg/injection, schedule: Q01DX009 (ip), vehicle: saline 96 % of control | dose: 25.0 mg/kg/injection, schedule: Q04DX003 (ip), vehicle: saline 98 % of control | [16] 113 % of control | dose: 50.0 mg/kg/injection, schedule: Q04DX003 (ip), vehicle: saline 101 % of control | [17] 92 % of control | [10] 104 % of control

ClC(Cl)(Cl)c1ccc(C(Cl)(Cl)Cl)cc1
inactive: dose: 12.5 mg/kg/injection, schedule: Q01DX009 (ip), vehicle: Klucel (hydroxypropylcellulose) (HPC) 96 % of control | [1] 104 % of control | [2] 94 % of control and 97 % of control | [3] 94 % of control | [4] 105 % of control | [5] 91 % of control
